{
  "source": "patent US12006317B1",
  "about": "“5-substituted aminopyrimido [6′,1′:2,3] imidazo [4,5-c] [2,6] naphthyridine compounds as CK2 inhibitors” (KING FAISAL UNIVERSITY, priority 2023, dated 2024)",
  "key": {"[1]": {"system": "PC3 (prostate) cancer cells", "assay": "In vitro cytotoxic activity MTT assay, PC3", "type": "cell-based", "details": "Homo sapiens, Prostate cell, cells exposed for 96 hours, read-out: IC50, 50% inhibition of cell proliferation", "procedure": "(§1) Compounds 1-12 were screened for their in vitro cytotoxic activity utilizing a 3-(4,5-dimethyl-thiazol-2-yl)-2,5-diphenyltetrazolium bromide (MTT) assay against selected cancer human cell lines consisting of PC3 (prostate), HCT116 (colon), A375 (melanoma), H1299 (lung), MIAPaCa-2 (pancreas), HL60 (leukemia), MCF7 (breast), MDA-MB-231 (breast) (T. Mosmann, J. Immmol. Meth., 1983, 65, 55-63). The cells were cultured at 37° C. in RMPI1640 medium supplemented with 10% fetal bovine serum, 50 IU/mL penicillin, and 50 μg/mL streptomycin in a 5% CO2 incubator. All cells were sub-cultured 3 times/week by trypsinisation. Viable cells were seeded and allowed to adhere for 12 h before a test drug was added in 96-well plates at an initial density of 1.0×10^5 cells/mL. Tumour cell lines were separately exposed to various concentrations of the tested compounds followed by incubation at a temperature of 37° C. during 96 h inside a medium of fresh RMPI 1640. Cells were subsequently incubated at 37° C. using MTT at 0.5 mg/mL during 4 h. After removal of supernatant, formazan crystals were dissolved in isopropanol and the optical density was measured at 570 nm. CX-4945 was used as a positive control."}, "[2]": {"system": "HCT116 (colon) cancer cells", "assay": "In vitro cytotoxic activity MTT assay, HCT116", "type": "cell-based", "details": "Homo sapiens, HCT-116, cells exposed for 96 hours, read-out: IC50, 50% inhibition of cell proliferation", "procedure": "as §1"}, "[3]": {"system": "A375 (melanoma) cancer cells", "assay": "In vitro cytotoxic activity MTT assay, A375", "type": "cell-based", "details": "Homo sapiens, A-375, cells exposed for 96 hours, read-out: IC50, 50% inhibition of cell proliferation", "procedure": "as §1"}, "[4]": {"system": "H1299 (lung) cancer cells", "assay": "In vitro cytotoxic activity MTT assay, H1299", "type": "cell-based", "details": "Homo sapiens, NCI-H1299, cells exposed for 96 hours, read-out: IC50, 50% inhibition of cell proliferation", "procedure": "as §1"}, "[5]": {"system": "MIAPaCa-2 (pancreas) cancer cells", "assay": "In vitro cytotoxic activity MTT assay, MIAPaCa-2", "type": "cell-based", "details": "Homo sapiens, MIA PaCa-2, cells exposed for 96 hours, read-out: IC50, 50% inhibition of cell proliferation", "procedure": "as §1"}, "[6]": {"system": "HL60 (leukemia) cancer cells", "assay": "In vitro cytotoxic activity MTT assay, HL60", "type": "cell-based", "details": "Homo sapiens, HL-60, cells exposed for 96 hours, read-out: IC50, 50% inhibition of cell proliferation", "procedure": "as §1"}, "[7]": {"system": "MCF7 (breast) cancer cells", "assay": "In vitro cytotoxic activity MTT assay, MCF7", "type": "cell-based", "details": "Homo sapiens, cells exposed for 96 hours, read-out: IC50, 50% inhibition of cell proliferation", "procedure": "as §1"}, "[8]": {"system": "MDA-MB-231 (breast) cancer cells", "assay": "In vitro cytotoxic activity MTT assay, MDA-MB-231", "type": "cell-based", "details": "Homo sapiens, cells exposed for 96 hours, read-out: IC50, 50% inhibition of cell proliferation", "procedure": "as §1"}, "[9]": {"target": "T1, recombinant human CK2 (RRββ-holoenzyme) (Homo sapiens, UniProt P68400)", "T1 construct": "purchased Millipore", "T1 sequence (P68400 whole entry)": "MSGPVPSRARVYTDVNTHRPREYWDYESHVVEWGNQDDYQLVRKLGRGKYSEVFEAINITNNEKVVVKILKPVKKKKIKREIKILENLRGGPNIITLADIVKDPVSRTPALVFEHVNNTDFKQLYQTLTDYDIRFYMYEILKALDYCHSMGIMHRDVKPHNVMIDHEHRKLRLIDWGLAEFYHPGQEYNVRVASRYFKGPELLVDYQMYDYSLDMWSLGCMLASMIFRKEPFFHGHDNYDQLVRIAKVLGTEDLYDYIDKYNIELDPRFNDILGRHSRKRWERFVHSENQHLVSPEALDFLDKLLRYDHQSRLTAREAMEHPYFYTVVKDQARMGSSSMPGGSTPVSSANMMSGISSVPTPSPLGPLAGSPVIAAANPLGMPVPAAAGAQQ", "T1 sequence (P67870 whole entry partner)": "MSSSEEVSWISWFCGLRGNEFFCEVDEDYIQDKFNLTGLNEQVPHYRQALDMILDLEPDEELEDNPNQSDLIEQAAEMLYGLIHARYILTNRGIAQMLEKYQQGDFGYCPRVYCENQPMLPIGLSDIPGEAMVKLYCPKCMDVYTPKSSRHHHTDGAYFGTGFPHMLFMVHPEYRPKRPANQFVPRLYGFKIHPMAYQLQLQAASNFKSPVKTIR", "assay": "CK2 Kinase Assay (33P-ATP, substrate peptide RRRDDDSDDD)", "type": "biochemical", "details": "final ATP concentration 15 μM, 10 min at 30° C.; read-out: protein kinase CK2 IC50", "procedure": "CK2 Kinase Assay was conducted using the protocol as described in Pierre F. et al; J. Med. Chem. 2011, 54, 635-654. The tested compounds in aqueous solution were added at a volume of 10 μL to a reaction mixture comprising 10 μL of assay dilution buffer (ADB; 20 mM MOPS, pH 7.2, 25 mM β-glycerol phosphate, 5 mM EGTA, 1 mM sodium orthovanadate, and 1 mM dithiothreitol), 10 μL of substrate peptide (RRRDDDSDDD, dissolved in ADB at a concentration of 1 mM), 10 μL of recombinant human CK2 (RRββ-holoenzyme, 25 ng dissolved in ADB; Millipore). Reactions were initiated by the addition of 10 μL of ATP solution (90% 75 mM MgCl2, 75 μM ATP (final ATP concentration:15 μM) dissolved in ADB; 10% [γ-33P] ATP (stock 1 mCi/100 μL; 3000 Ci/mmol (Perkin-Elmer) and maintained for 10 min at 30° C. The reactions were quenched with 100 μL of 0.75% phosphoric acid and then transferred to and filtered through a phosphor cellulose filter plate (Millipore). After washing each well five times with 0.75% phosphoric acid, the plate was dried under vacuum for 5 min and, following the addition of 15 μL of scintillation fluid to each well, the residual radioactivity was measured using a Wallac […]. The IC50 values were derived from eight concentrations of test inhibitors."}},
  "data": [
    {"smiles": "Clc1cccc(Nc2nc3c(nc4ccncn43)c3cnccc23)c1", "note": "[Compound 1, N-(3-chlorophenyl)pyrimido[6′,1′:2,3]imidazo[4,5-c][2,6]naphthyridin-5-amine]", "values": [
      {"measurement": "IC50", "setting": "[1]", "value": 1300, "unit": "nM"},
      {"measurement": "IC50", "setting": "[2]", "value": 1200, "unit": "nM"},
      {"measurement": "IC50", "setting": "[3]", "value": 2800, "unit": "nM"},
      {"measurement": "IC50", "setting": "[4]", "value": 2100, "unit": "nM"},
      {"measurement": "IC50", "setting": "[5]", "value": 900, "unit": "nM"},
      {"measurement": "IC50", "setting": "[6]", "value": 3400, "unit": "nM"},
      {"measurement": "IC50", "setting": "[7]", "value": 5100, "unit": "nM"},
      {"measurement": "IC50", "setting": "[8]", "value": 3900, "unit": "nM"},
      {"measurement": "IC50", "setting": "[9]", "value": 12, "unit": "nM"}
    ]}
  ]
}
